Measurements as given in patent US9874563B2, “Detecting and quantifying cryptic HIV replication” (UNIVERSITY OF DELAWARE, priority 2012, dated 2018).
Where “and” joins values, the source holds several entries; their conditions need not be identical. Equal entries are not always repeated.

How the values were obtained:
HIV [1] = assay: Model fit of 2-LTR dynamics following raltegravir intensification (nonlinear mixed-effects, Bayesian MCMC); set-up: species or system human
From the text: Previous work has been done on identifying HIV model parameters from experiments involving the use of integrase inhibitors. These models, however, considered only standard viral load measurements, not measurements of 2-LTR circle frequency. We introduce a simple model of the dynamics of the concentrations of actively infected cells y(t) and cells containing 2-LTR episomes c(t) in the site of episome formation. We model the behavior both in the absence of raltegravir uII=0 and in the presence of raltegravir uII=1.
The reproductive ratio of the virus prior to raltegravir intensification is R, and the reproductive ratio after raltegravir intensification is (1−ηII)R, where ηII is the effectiveness of raltegravir at interrupting infection events that would otherwise have occurred without intensification. The reproductive ratios are defined as the average number of infected cells created per infected cell in a single generation. If the virus was replicating efficiently prior to intensification (R0>1), then the measured R would be approximately equal to 1 at equilibrium, as the efficient replication would necessarily be target cell limited. If the infection is controlled prior to intensification (R0<1), then the measured reproductive ratio R will be approximately equal to R0.
2-LTR circles may also be formed at an integrase inhibitor-enhanced rate in the presence of raltegravir. The rate at which infection events are interrupted by raltegravir after intensification is ηIIRay which, when multiplied by the probability 0<kII<1 that the interruption of an infection even leads to the formation of a 2-LTR episome, gives us the rate of integrase inhibitor-enhances 2-LTR formation kIIηIIRay. φ≧0 is the ratio between the intrinsic rate and the raltegravir-enhanced rate of 2-LTR formation.
These dynamics can be written in the form of Equation 1: y=−(1−(1−ηIIuII)R)ay+ye ċ=φkII(1−ηIIuII)Ray+kIIηIIuIIRay−δc (1)
To reduce the parametric covariance, we introduced a re-parametrized parameter A=kIIye/δ to replace kIIye. […]
The posterior distribution of the parameter likelihood given the measured 2-LTR values was computed using a Bayesian Markov-Chain Monte-Carlo method with Gibbs Sampling, as in References 56, 75, 78 and 79 with noninformative prior distributions for the parameters as follows:
Markov-Chain Monte-Carlo methods were used to fit Equation 5 to the experimental data for 13 patients, with shared parameters {θ, δ} and patient-specific parameters {R; ηII, kIIye}, using the measurement uncertainty model described in the Materials and Methods section. […] The maximum-likelihood predicted 2-LTR concentrations for each patient, together with the 95% prediction interval, is shown compared to the measured data in FIG. 3.

HIV 2-LTR circles = conditions: cited from earlier work
HIV [2] = conditions: duration of the experiment; 13 patients of the experimental group; cited from earlier work

Cc1nnc(C(=O)NC(C)(C)c2nc(C(=O)NCc3ccc(F)cc3)c(O)c(=O)n2C)o1 [raltegravir]
effect on level of cryptic replication (HIV [1]; addition of raltegravir to HAART, interpretation of the 2-LTR data): reduces the level of cryptic replication to undetectable levels
increase in likelihood of 2-LTR formation when raltegravir interrupts integration (HIV [1]; from 95% credible interval of φ): 250-1000 times
ηII (ratio-reduction in R following raltegravir intensification; drug efficacy of raltegravir), MLE (HIV [1]; maximum likelihood (posterior mode), patient-specific fitted parameter, one table row per patient): 0.01 (3×) and 0.19 and 0.02 and 0.49 and 0.77 and 0.05 and 0.03 and 0.79 and 0.81 and 0.99 and 0.08
ηII (ratio-reduction in R following raltegravir intensification; drug efficacy of raltegravir), Median (HIV [1]; posterior median, patient-specific fitted parameter, one table row per patient): 0.78 and 0.21 and 0.02 and 0.53 (3×) and 0.74 and 0.38 and 0.04 and 0.39 and 0.50 and 0.55 and 0.12
patients with 2-LTR containing cells observed (HIV 2-LTR circles; HAART intensified by raltegravir for 48 weeks, experimental group of 45): 13/45 and 13 of the 45
2-LTR quantification, Week Post-Intensification 0 (HIV 2-LTR circles; week 0 (baseline at start of raltegravir intensification), individual HAART-suppressed patients, one table row per patient, censoring limit 1.20): <1.20 2-LTR per 10^6 PBMC (7×) and 1.76 2-LTR per 10^6 PBMC and 38.62 2-LTR per 10^6 PBMC and 35.30 2-LTR per 10^6 PBMC and 9.98 2-LTR per 10^6 PBMC and 2.99 2-LTR per 10^6 PBMC
2-LTR quantification, Week Post-Intensification 2 (HIV 2-LTR circles; week 2 of raltegravir intensification, individual patients, one table row per patient, censoring limit 1.20): 21.47 2-LTR per 10^6 PBMC and 48.16 2-LTR per 10^6 PBMC and 72.77 2-LTR per 10^6 PBMC and 30.55 2-LTR per 10^6 PBMC and 5.84 2-LTR per 10^6 PBMC and 12.98 2-LTR per 10^6 PBMC and 3.05 2-LTR per 10^6 PBMC and <1.20 2-LTR per 10^6 PBMC (4×) and 23.69 2-LTR per 10^6 PBMC and 1.98 2-LTR per 10^6 PBMC
2-LTR quantification, Week Post-Intensification 4 (HIV 2-LTR circles; week 4 of raltegravir intensification, individual patients, one table row per patient, censoring limit 1.20): <1.20 2-LTR per 10^6 PBMC (3×) and 9.07 2-LTR per 10^6 PBMC and 5.37 2-LTR per 10^6 PBMC and 13.42 2-LTR per 10^6 PBMC and 3.19 2-LTR per 10^6 PBMC and 2.68 2-LTR per 10^6 PBMC and 24.75 2-LTR per 10^6 PBMC and 21.07 2-LTR per 10^6 PBMC and 3.03 2-LTR per 10^6 PBMC
2-LTR quantification, Week Post-Intensification 12 (HIV 2-LTR circles; week 12 of raltegravir intensification, individual patients, one table row per patient, censoring limit 1.20): 10.38 2-LTR per 10^6 PBMC and 7.38 2-LTR per 10^6 PBMC and 1.26 2-LTR per 10^6 PBMC and <1.20 2-LTR per 10^6 PBMC (4×) and 1.61 2-LTR per 10^6 PBMC and 9.55 2-LTR per 10^6 PBMC and 39.64 2-LTR per 10^6 PBMC and 30.11 2-LTR per 10^6 PBMC
2-LTR quantification, Week Post-Intensification 24 (HIV 2-LTR circles; week 24 of raltegravir intensification, individual patients, one table row per patient, censoring limit 1.20): 2.73 2-LTR per 10^6 PBMC and 2.20 2-LTR per 10^6 PBMC and <1.20 2-LTR per 10^6 PBMC (8×) and 1.88 2-LTR per 10^6 PBMC and 1.29 2-LTR per 10^6 PBMC
2-LTR quantification, Week Post-Intensification 48 (HIV 2-LTR circles; week 48 of raltegravir intensification, individual patients, one table row per patient, censoring limit 1.20): <1.20 2-LTR per 10^6 PBMC (9×) and 7.04 2-LTR per 10^6 PBMC
plasma viral load (HIV [2]): remained below the standard limit of detection
